# Active and inactive are the calls of the source. No cut-off for these calls is given here.
# Tested on: MCF7
# Assay: Induction of apoptosis in human MCF7 cells assessed as ratio of depolarized to polarized mitochondrial membrane at IC50 by JC-1 dye based FACS analysis
# Format: functional, cell-based
# Settings: TDE = time-dependent effect
row,SMILES,Activity
1,C=C1CC[C@@H]2[C@](C)(CO)[C@H](O)CC[C@@]2(C)[C@@H]1CC1CN(Cc2ccccc2)[C@@]2(C(=O)Nc3c(F)cccc32)[C@]12C(=O)OC[C@H]2O (stereo partly specified),tde

# Tested on: MCF7
# Assay: Cell cycle arrest in human MCF7 cells assessed as accumulation at G0/G1 phase at IC50 after 48 hrs by propidium iodide staining based flow cytometric analysis (reference value: 59.5%)
# Format: functional
# Settings: not given
row,SMILES,Activity [%]
1,C=C1CC[C@@H]2[C@](C)(CO)[C@H](O)CC[C@@]2(C)[C@@H]1CC1CN(Cc2ccccc2)[C@@]2(C(=O)Nc3c(F)cccc32)[C@]12C(=O)OC[C@H]2O (stereo partly specified),33.3

# Tested on: MCF7
# Assay: Induction of apoptosis in human MCF7 cells assessed as increase in cleaved PARP-1 level at IC50 after 48 hrs by western blot analysis
# Format: functional, cell-based
# Settings: not given
row,SMILES,Activity
1,C=C1CC[C@@H]2[C@](C)(CO)[C@H](O)CC[C@@]2(C)[C@@H]1CC1CN(Cc2ccccc2)[C@@]2(C(=O)Nc3c(F)cccc32)[C@]12C(=O)OC[C@H]2O (stereo partly specified),Active

# Tested on: MCF7
# Assay: Induction of apoptosis in human MCF7 cells assessed as dead cells at IC50 after 48 hrs by annexin V-FITC/propidium iodide staining based flow cytometric analysis (reference value: 0.2%)
# Format: functional
# Settings: not given
row,SMILES,Activity [%]
1,C=C1CC[C@@H]2[C@](C)(CO)[C@H](O)CC[C@@]2(C)[C@@H]1CC1CN(Cc2ccccc2)[C@@]2(C(=O)Nc3c(F)cccc32)[C@]12C(=O)OC[C@H]2O (stereo partly specified),1.4

# Tested on: MCF7
# Assay: Induction of apoptosis in human MCF7 cells assessed as rounded cells at IC50 after 24 hrs by inverted phase contrast microscopic analysis
# Format: functional, cell-based
# Settings: not given
row,SMILES,Activity
1,C=C1CC[C@@H]2[C@](C)(CO)[C@H](O)CC[C@@]2(C)[C@@H]1CC1CN(Cc2ccccc2)[C@@]2(C(=O)Nc3c(F)cccc32)[C@]12C(=O)OC[C@H]2O (stereo partly specified),Active

# Tested on: MCF7
# Assay: Induction of apoptosis in human MCF7 cells assessed as early apoptotic cells at IC50 after 24 hrs by annexin V-FITC/propidium iodide staining based flow cytometric analysis (reference value: 0.1%)
# Format: functional
# Settings: not given
row,SMILES,Activity [%]
1,C=C1CC[C@@H]2[C@](C)(CO)[C@H](O)CC[C@@]2(C)[C@@H]1CC1CN(Cc2ccccc2)[C@@]2(C(=O)Nc3c(F)cccc32)[C@]12C(=O)OC[C@H]2O (stereo partly specified),22.7

# Tested on: MCF7
# Assay: Induction of apoptosis in human MCF7 cells assessed as viable cells at IC50 after 24 hrs by annexin V-FITC/propidium iodide staining based flow cytometric analysis (reference value: 99.8%)
# Format: functional
# Settings: not given
row,SMILES,Activity [%]
1,C=C1CC[C@@H]2[C@](C)(CO)[C@H](O)CC[C@@]2(C)[C@@H]1CC1CN(Cc2ccccc2)[C@@]2(C(=O)Nc3c(F)cccc32)[C@]12C(=O)OC[C@H]2O (stereo partly specified),76.3

# Tested on: MCF7
# Assay: Induction of apoptosis in human MCF7 cells assessed as early apoptotic cells at IC50 after 48 hrs by annexin V-FITC/propidium iodide staining based flow cytometric analysis (reference value: 0.1%)
# Format: functional
# Settings: not given
row,SMILES,Activity [%]
1,C=C1CC[C@@H]2[C@](C)(CO)[C@H](O)CC[C@@]2(C)[C@@H]1CC1CN(Cc2ccccc2)[C@@]2(C(=O)Nc3c(F)cccc32)[C@]12C(=O)OC[C@H]2O (stereo partly specified),57.8

# Tested on: MCF7
# Assay: Induction of apoptosis in human MCF7 cells assessed as progressive cell detachment at IC50 after 24 hrs by inverted phase contrast microscopic analysis
# Format: functional, cell-based
# Settings: not given
row,SMILES,Activity
1,C=C1CC[C@@H]2[C@](C)(CO)[C@H](O)CC[C@@]2(C)[C@@H]1CC1CN(Cc2ccccc2)[C@@]2(C(=O)Nc3c(F)cccc32)[C@]12C(=O)OC[C@H]2O (stereo partly specified),Active

# Tested on: MCF7
# Assay: Induction of apoptosis in human MCF7 cells assessed as polarized mitochondrial membrane at IC50 after 24 hrs by JC-1 dye based FACS analysis (reference value: 90%)
# Format: functional
# Settings: not given
row,SMILES,Activity [%]
1,C=C1CC[C@@H]2[C@](C)(CO)[C@H](O)CC[C@@]2(C)[C@@H]1CC1CN(Cc2ccccc2)[C@@]2(C(=O)Nc3c(F)cccc32)[C@]12C(=O)OC[C@H]2O (stereo partly specified),50.1

# Tested on: MCF7
# Assay: Induction of apoptosis in human MCF7 cells assessed as late apoptotic cells at IC50 after 24 hrs by annexin V-FITC/propidium iodide staining based flow cytometric analysis (reference value: 0.0%)
# Format: functional
# Settings: not given
row,SMILES,Activity [%]
1,C=C1CC[C@@H]2[C@](C)(CO)[C@H](O)CC[C@@]2(C)[C@@H]1CC1CN(Cc2ccccc2)[C@@]2(C(=O)Nc3c(F)cccc32)[C@]12C(=O)OC[C@H]2O (stereo partly specified),0.4

# Tested on: MCF7
# Assay: Induction of apoptosis in human MCF7 cells assessed as polarized mitochondrial membrane at IC50 after 48 hrs by JC-1 dye based FACS analysis (reference value: 90%)
# Format: functional
# Settings: not given
row,SMILES,Activity [%]
1,C=C1CC[C@@H]2[C@](C)(CO)[C@H](O)CC[C@@]2(C)[C@@H]1CC1CN(Cc2ccccc2)[C@@]2(C(=O)Nc3c(F)cccc32)[C@]12C(=O)OC[C@H]2O (stereo partly specified),2.5

# Tested on: MCF7
# Assay: Induction of apoptosis in human MCF7 cells assessed as dead cells at IC50 after 24 hrs by annexin V-FITC/propidium iodide staining based flow cytometric analysis (reference value: 0.2%)
# Format: functional
# Settings: not given
row,SMILES,Activity [%]
1,C=C1CC[C@@H]2[C@](C)(CO)[C@H](O)CC[C@@]2(C)[C@@H]1CC1CN(Cc2ccccc2)[C@@]2(C(=O)Nc3c(F)cccc32)[C@]12C(=O)OC[C@H]2O (stereo partly specified),0.6

# Tested on: MCF7
# Assay: Induction of apoptosis in human MCF7 cells assessed as increase in cleaved caspase-9 level at IC50 after 48 hrs by western blot analysis
# Format: functional, cell-based
# Settings: not given
row,SMILES,Activity
1,C=C1CC[C@@H]2[C@](C)(CO)[C@H](O)CC[C@@]2(C)[C@@H]1CC1CN(Cc2ccccc2)[C@@]2(C(=O)Nc3c(F)cccc32)[C@]12C(=O)OC[C@H]2O (stereo partly specified),Active

# Tested on: MCF7
# Assay: Cell cycle arrest in human MCF7 cells assessed as accumulation at G2/M phase at IC50 after 24 hrs by propidium iodide staining based flow cytometric analysis (reference value: 24.2%)
# Format: functional
# Settings: not given
row,SMILES,Activity [%]
1,C=C1CC[C@@H]2[C@](C)(CO)[C@H](O)CC[C@@]2(C)[C@@H]1CC1CN(Cc2ccccc2)[C@@]2(C(=O)Nc3c(F)cccc32)[C@]12C(=O)OC[C@H]2O (stereo partly specified),22.2

# Tested on: MCF7
# Assay: Induction of apoptosis in human MCF7 cells assessed as late apoptotic cells at IC50 after 48 hrs by annexin V-FITC/propidium iodide staining based flow cytometric analysis (reference value: 0.0%)
# Format: functional
# Settings: not given
row,SMILES,Activity [%]
1,C=C1CC[C@@H]2[C@](C)(CO)[C@H](O)CC[C@@]2(C)[C@@H]1CC1CN(Cc2ccccc2)[C@@]2(C(=O)Nc3c(F)cccc32)[C@]12C(=O)OC[C@H]2O (stereo partly specified),4.1

# Tested on: MCF7
# Assay: Cytotoxicity against human MCF7 cells assessed as growth inhibition after 72 hrs by MTT assay
# Format: functional, cell-based
# Settings: MCF7, 72 h
row,SMILES,IC50 [µM]
1,C=C1CC[C@@H]2[C@](C)(CO)[C@H](O)CC[C@@]2(C)[C@@H]1CC1CN(Cc2ccccc2)[C@@]2(C(=O)Nc3c(F)cccc32)[C@]12C(=O)OC[C@H]2O (stereo partly specified),13.7

# Tested on: MCF7
# Assay: Induction of apoptosis in human MCF7 cells assessed as increase in cleaved caspase-7 level at IC50 after 48 hrs by western blot analysis
# Format: functional, cell-based
# Settings: not given
row,SMILES,Activity
1,C=C1CC[C@@H]2[C@](C)(CO)[C@H](O)CC[C@@]2(C)[C@@H]1CC1CN(Cc2ccccc2)[C@@]2(C(=O)Nc3c(F)cccc32)[C@]12C(=O)OC[C@H]2O (stereo partly specified),Active

# Tested on: MCF7
# Assay: Induction of apoptosis in human MCF7 cells assessed as depolarized mitochondrial membrane at IC50 after 24 hrs by JC-1 dye based FACS analysis (reference value: 10%)
# Format: functional
# Settings: not given
row,SMILES,Activity [%]
1,C=C1CC[C@@H]2[C@](C)(CO)[C@H](O)CC[C@@]2(C)[C@@H]1CC1CN(Cc2ccccc2)[C@@]2(C(=O)Nc3c(F)cccc32)[C@]12C(=O)OC[C@H]2O (stereo partly specified),50

# Tested on: MCF7
# Assay: Induction of apoptosis in human MCF7 cells assessed as viable cells at IC50 after 48 hrs by annexin V-FITC/propidium iodide staining based flow cytometric analysis (reference value: 99.8%)
# Format: functional
# Settings: not given
row,SMILES,Activity [%]
1,C=C1CC[C@@H]2[C@](C)(CO)[C@H](O)CC[C@@]2(C)[C@@H]1CC1CN(Cc2ccccc2)[C@@]2(C(=O)Nc3c(F)cccc32)[C@]12C(=O)OC[C@H]2O (stereo partly specified),36.7

# Tested on: MCF7
# Assay: Cell cycle arrest in human MCF7 cells assessed as accumulation at S phase at IC50 after 24 hrs by propidium iodide staining based flow cytometric analysis (reference value: 16.3%)
# Format: functional
# Settings: not given
row,SMILES,Activity [%]
1,C=C1CC[C@@H]2[C@](C)(CO)[C@H](O)CC[C@@]2(C)[C@@H]1CC1CN(Cc2ccccc2)[C@@]2(C(=O)Nc3c(F)cccc32)[C@]12C(=O)OC[C@H]2O (stereo partly specified),31.1

# Tested on: MCF7
# Assay: Induction of apoptosis in human MCF7 cells assessed as depolarized mitochondrial membrane at IC50 after 48 hrs by JC-1 dye based FACS analysis (reference value: 10%)
# Format: functional
# Settings: not given
row,SMILES,Activity [%]
1,C=C1CC[C@@H]2[C@](C)(CO)[C@H](O)CC[C@@]2(C)[C@@H]1CC1CN(Cc2ccccc2)[C@@]2(C(=O)Nc3c(F)cccc32)[C@]12C(=O)OC[C@H]2O (stereo partly specified),97.5

# Tested on: MCF7
# Assay: Cell cycle arrest in human MCF7 cells assessed as accumulation at G2/M phase at IC50 after 48 hrs by propidium iodide staining based flow cytometric analysis (reference value: 24.2%)
# Format: functional
# Settings: not given
row,SMILES,Activity [%]
1,C=C1CC[C@@H]2[C@](C)(CO)[C@H](O)CC[C@@]2(C)[C@@H]1CC1CN(Cc2ccccc2)[C@@]2(C(=O)Nc3c(F)cccc32)[C@]12C(=O)OC[C@H]2O (stereo partly specified),17.4

# Tested on: MCF7
# Assay: Cell cycle arrest in human MCF7 cells assessed as accumulation at G0/G1 phase at IC50 after 24 hrs by propidium iodide staining based flow cytometric analysis (reference value: 59.5%)
# Format: functional
# Settings: not given
row,SMILES,Activity [%]
1,C=C1CC[C@@H]2[C@](C)(CO)[C@H](O)CC[C@@]2(C)[C@@H]1CC1CN(Cc2ccccc2)[C@@]2(C(=O)Nc3c(F)cccc32)[C@]12C(=O)OC[C@H]2O (stereo partly specified),46.6

# Tested on: MCF7
# Assay: Cell cycle arrest in human MCF7 cells assessed as accumulation at S phase at IC50 after 48 hrs by propidium iodide staining based flow cytometric analysis (reference value: 16.3%)
# Format: functional
# Settings: not given
row,SMILES,Activity [%]
1,C=C1CC[C@@H]2[C@](C)(CO)[C@H](O)CC[C@@]2(C)[C@@H]1CC1CN(Cc2ccccc2)[C@@]2(C(=O)Nc3c(F)cccc32)[C@]12C(=O)OC[C@H]2O (stereo partly specified),48.1

# Tested on: MCF7
# Assay: Induction of ROS generation in human MCF7 cells at IC50 after 24 hrs by CM-H2DCFDA staining based flow cytometric analysis (reference value: 12.6%)
# Format: functional
# Settings: not given
row,SMILES,Activity [%]
1,C=C1CC[C@@H]2[C@](C)(CO)[C@H](O)CC[C@@]2(C)[C@@H]1CC1CN(Cc2ccccc2)[C@@]2(C(=O)Nc3c(F)cccc32)[C@]12C(=O)OC[C@H]2O (stereo partly specified),96.2
